Common to all, as to assay: DTP human tumour cell line panel, 48 h
Assay [1] concerns A498 renal.
In assay [2] the test system is ACHN renal.
Assay [3] concerns EKVX NSCLC.
Assay [4] relates to HCT-116 colon.
Assay [5] deals with HT29 colon.
The subject of assay [6] is LOX IMVI melanoma.
Assay [7] deals with MCF7 breast.
For assay [8], the system named is MDA-MB-231 breast.
For assay [9], the system named is OVCAR-3 ovarian.
Assay [10] relates to OVCAR-4 ovarian.
Assay [11] has as its system PC-3 prostate.
Assay [12] deals with RXF 393 renal.
The test system of assay [13] is SK-MEL-28 melanoma.
Assay [14] relates to SW-620 colon.
Assay [15] concerns TK-10 renal.
Assay [16] concerns U251 CNS.
Assay [17] has as its system UACC-257 melanoma.
The subject of assay [18] is UACC-62 melanoma.
In assay [19] the test system is UO-31 renal.
Assay [20] relates to SK-OV-3 ovarian.

Our source for the TGI values is PubChem BioAssay (NCI).

For orientation: TGI means the concentration at which net growth stops. Higher therefore signals less potent growth arrest.

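Cells were grown in 96-well plates and exposed to each compound for 48 hours at five concentrations; endpoints were interpolated linearly between bracketing concentrations, or set to the highest concentration if not reached. TGI: concentration producing complete growth inhibition.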

Consider `CCOC(=O)C1=CNC(C(=O)OCC)C1c1cccn1-c1ccccc1` (stereo not given), for which the TGI in [1] is more than 100 µM; in assay [2], more than 100 µM; in [3], more than 100 µM; in assay [4] it was 58.6 µM; in assay [5], 50.5 µM; in assay [6], 31 µM. The total growth inhibition concentration (TGI) was more than 100 µM in assay [7]; 40.1 µM in assay [8]; more than 100 µM in assay [9]; more than 100 µM in assay [10]; 71.3 µM in assay [11]; 69 µM in assay [12]. In addition, the TGI was 76.3 µM in assay [13]; more than 100 µM in assay [14]; more than 100 µM in assay [15]; more than 100 µM in assay [16]; more than 100 µM in [17]; more than 100 µM in [18]. For the same compound, in assay [19], the TGI was more than 100 µM.
As to `C/C(=C\CNc1ncnc2c1ncn2CCC(=O)OC(C)(C)C)CO`, the TGI in assay [1], in [2], in [3], in assay [4], in assay [5] and in assay [6] was more than 100 µM throughout. For the same compound, the TGI in assay [7], in assay [8], in assay [9], in assay [10], in assay [11] and in [12] was more than 100 µM throughout. In addition, the TGI in assay [13], in assay [20], in [14], in assay [15], in assay [17] and in assay [18] was more than 100 µM throughout. The compound further came in with a concentration for total growth inhibition (TGI) in assay [19] of more than 100 µM.
Take `CSC1=C(C#N)C(=O)N(c2ccc(C)cc2)C(=O)C1C#N` (stereo not given): the TGI in [1], in assay [2], in assay [3], in assay [4], in assay [5] and in assay [6] was more than 100 µM each time. The TGI in assay [7], in assay [8], in [9], in [10], in assay [11] and in assay [12] was more than 100 µM throughout. The TGI in assay [13], in assay [20], in assay [14], in assay [15], in [16] and in assay [17] was more than 100 µM throughout. Further, the TGI in assay [18] and in assay [19] was more than 100 µM each time.
In the case of `O=C(O)c1cccc(OCCOc2cccc(C(=O)O)c2[N+](=O)[O-])c1[N+](=O)[O-]`, the concentration for total growth inhibition (TGI) in assay [1], in assay [2], in [3], in [4], in assay [5] and in assay [6] was more than 100 µM in each case. The TGI in assay [7], in [8], in assay [9], in assay [10], in assay [11] and in [12] was more than 100 µM throughout. Moreover, the TGI in assay [13], in assay [20], in assay [14], in assay [15], in [16] and in [17] was more than 100 µM throughout. Further, the TGI in assay [18] and in assay [19] was more than 100 µM each time.
Turning to `COc1ccc(-n2c(Cn3nnc(-c4cccnc4)n3)nn(C3OC(COC(=O)c4ccccc4)C(OC(=O)c4ccccc4)C3OC(=O)c3ccccc3)c2=S)cc1` (stereo not given), the TGI in [1], in assay [2], in [3], in assay [4], in [5] and in [6] was more than 100 µM each time. The TGI in assay [7], in assay [8], in assay [9], in assay [10], in assay [11] and in assay [12] was more than 100 µM in each case. The TGI in [13], in assay [20], in [14], in assay [15], in assay [16] and in assay [17] was more than 100 µM in each case. Besides, the TGI in [18] and in [19] was more than 100 µM each time.
As to `Nc1nc(Br)nc2ncn(C3CC(O)C(CO)O3)c12` (stereo not given), the TGI in assay [1], in assay [2], in assay [3], in [4], in assay [5] and in assay [6] was more than 100 µM in each case. Moreover, the TGI in assay [7], in [8], in assay [9], in assay [10], in [11] and in assay [12] was more than 100 µM throughout. The concentration for total growth inhibition (TGI) in [13], in assay [20], in [14], in assay [15], in assay [16] and in assay [17] was more than 100 µM throughout. Also, the TGI in [18] and in [19] was more than 100 µM throughout.
`CCOC(=O)c1cn(CC)c2ccc3ccsc3c2c1=O`: the TGI in assay [1], in [2], in assay [3], in [4], in [5] and in assay [6] was more than 100 µM throughout. For the same compound, the total growth inhibition concentration (TGI) in assay [7], in assay [8], in assay [9], in [10], in assay [11] and in assay [12] was more than 100 µM throughout. Further, the TGI in assay [13], in [20], in assay [14], in assay [15], in assay [16] and in [17] was more than 100 µM throughout. In addition, the TGI in [18] and in assay [19] was more than 100 µM each time.
As for `CCC(c1ccc(OC)cc1)C1NC(=S)NC1=O` (stereo not given), the TGI in assay [1], in [2], in assay [3], in assay [4], in assay [5] and in assay [6] was more than 50 µM each time. In addition, the TGI in assay [7], in [8], in assay [9], in [10], in [11] and in [12] was more than 50 µM in each case. The TGI in [13], in [20], in [14], in assay [15], in assay [16] and in assay [17] was more than 50 µM throughout. In addition, the TGI in assay [19] was more than 50 µM.
For `CCOC(=O)Nc1n[nH]nc1Cl`, the TGI in assay [1], in assay [3], in assay [4], in assay [5], in [6] and in [7] was more than 100 µM in each case. The TGI in [8], in assay [9], in assay [10], in assay [11], in [12] and in [13] was more than 100 µM each time. For the same compound, the TGI in [20], in [14], in assay [15], in assay [16], in assay [17] and in [18] was more than 100 µM throughout. The compound further registered a total growth inhibition concentration (TGI) in assay [19] of more than 100 µM.
Regarding `CC(=O)O[C@H]1CC[C@@]2(C)C(=CC[C@@H]3[C@@H]2CC[C@](C)(c2nnc(C)o2)[C@H]3CC#N)C1`, the TGI in assay [1], in assay [2], in assay [3], in assay [4], in [5] and in [6] was more than 100 µM throughout. Besides, the TGI in [7], in assay [8], in [9], in assay [10], in assay [11] and in assay [12] was more than 100 µM in each case. In addition, the concentration for total growth inhibition (TGI) in assay [20], in [14], in [15], in [16], in assay [17] and in assay [18] was more than 100 µM throughout. The TGI in [19] is more than 100 µM.
For `COC(=O)CC(CNC(=O)OCc1ccccc1)OCc1ccc(OC)cc1` (stereo not given), the TGI in assay [1], in assay [2], in assay [3], in [4], in [6] and in assay [7] was more than 100 µM in each case. Further, the TGI in assay [8], in assay [9], in assay [10], in assay [11], in assay [12] and in [13] was more than 100 µM each time. In addition, the TGI in assay [20], in assay [14], in assay [15], in assay [16], in [17] and in [18] was more than 100 µM throughout. Also, in assay [19], the TGI was more than 100 µM.
With `O=C1CCCCC1C(O)(C(F)(F)F)C(F)(F)Cl` (stereo not given), the TGI in assay [1], in [2], in [3], in [4], in assay [5] and in [6] was more than 10 µM each time. The TGI in assay [7], in assay [8], in [9], in [10], in [11] and in assay [12] was more than 10 µM throughout. Also, the total growth inhibition concentration (TGI) in assay [13], in assay [20], in assay [14], in assay [15], in assay [16] and in assay [17] was more than 10 µM each time. This compound yielded a concentration for total growth inhibition (TGI) in assay [18] of more than 10 µM.
For the compound `Cc1cccc2c1c(=O)c1c(O)cc3c(c1n2C)C=CC(C)(C)O3`, the TGI in [1], in assay [2], in assay [3], in assay [4], in assay [5] and in assay [6] was more than 100 µM each time. Moreover, the TGI in [7], in [8], in assay [9], in assay [10], in [11] and in assay [12] was more than 100 µM in each case. Moreover, the TGI in assay [13], in assay [20], in assay [14], in assay [15], in assay [16] and in [17] was more than 100 µM throughout. This compound showed a TGI in assay [18] of more than 100 µM.
For `O=c1nc2c(c(-c3ccc(F)cc3)[nH]1)COC/C2=C\c1ccc(F)cc1`, the TGI in assay [1], in assay [2], in assay [3], in assay [4], in assay [6] and in assay [7] was more than 100 µM each time. Moreover, the TGI in [8], in [9], in assay [10], in assay [11], in [12] and in [20] was more than 100 µM throughout. Also, the TGI in assay [14], in [15], in assay [16], in assay [17], in assay [18] and in [19] was more than 100 µM each time.
